Results published in patent US20260049071A1, “PROTEIN TYROSINE KINASE INHIBITOR AND MEDICAL USE THEREOF” (BEYANG THERAPEUTICS CO., LTD., priority 2022, published 2026).
Values after ≈ are worked out from the molar mass of the structure shown. Read-outs that look alike come from different tables or passages of the source.

Key:
[1] = statement in the summary; cited from earlier work
[2] = Compound distribution in plasma and ocular tissues after single ocular dose in Dutch belted rabbits; assay type: in vivo; conditions: eye drops 1 mg/mL (0.05 mg/eye), 0.5 h, 4 h or 8 h post-dose
Text: Age-related macular degeneration and diabetic retinopathy are associated with neovascularization in the posterior eye segment Due to the corneal and conjunctival barrier, one of the main problems with topical eye drops used to treat the posterior eye segment disorders is the low-efficiency delivery of the drug to the posterior eye segment. Therefore, it is important to measure the distribution of the compound in an ophthalmic formulation in several major ocular tissues. […] Dutch belted rabbits were used in this experiment. […]
In this experiment, male Dutch belted rabbits weighed 1.5-2.5 kg were purchased from Pizhou Dongfang Breeding Co., Ltd. Any operation on the laboratory animals in this experiment was in compliance with the relevant SOP requirements of the experimental operation of 3D BioOptima, Suzhou, China, and had been approved by the Institutional Animal Care and Use Committee (IACUC) of 3D BioOptima. […] The prepared dose formulations were freshly prepared on the day of administration, samples were retained and the actual concentration of the dose formulation was determined.
On the day of the experiment, animals were administrated at 1 mg/mL (0.05 mg/eye, 50 μL/eye). […] The concentration of each analyte in the rabbit ocular tissues and plasma obtained in this experiment was determined by LC-MS/MS. […]

[3] = test system: melanin; assay: Binding capacity of compounds to melanin; assay type: in vitro ADME; conditions: Sepia officinalis (cuttlefish), melanin suspension (1 mg/mL); 1 mg/mL melanin suspension in PBS pH 7.4, 2 μM compound, 2 h at 37° C.; read-out: Fu % (percentage of free drug, not bound to melanin)
Method in brief: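 Compound at 2 μM final incubated with 1 mg/mL Sepia melanin suspension in PBS pH 7.4 for 2 h at 37 °C with shaking; blank control in PBS with 0.1% BSA. Supernatant concentrations measured by LC-MS/MS; bound fraction from melanin versus control samples, free fraction as 100 − Fb.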

[4] = target: EGFR (Homo sapiens (Human), UniProt P00533); assay: Kinase inhibition, Mobility Shift Assay (EGFR); assay type: biochemical
Method in brief: (§1)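 Mobility shift assay: each kinase preincubated 10 min at room temperature with compound, then reacted with FAM-labeled peptide, MgCl2 and ATP at 28° C. for varying times. Substrate-to-product conversion read on Caliper; % inhibition normalised to no-kinase and DMSO controls, and IC50 fitted.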

[5] = target: VEGFR2 autophosphorylation (pVEGFR2) in HUVEC cells (Homo sapiens (Human), UniProt P35968); assay: Inhibition of VEGF-induced VEGFR2 autophosphorylation in HUVEC cells (ELISA); assay type: cell-based; conditions: 50 ng/ml human VEGF, compound 1 h
Chain of VEGFR2 autophosphorylation (pVEGFR2) in HUVEC cells (P35968 20-1356): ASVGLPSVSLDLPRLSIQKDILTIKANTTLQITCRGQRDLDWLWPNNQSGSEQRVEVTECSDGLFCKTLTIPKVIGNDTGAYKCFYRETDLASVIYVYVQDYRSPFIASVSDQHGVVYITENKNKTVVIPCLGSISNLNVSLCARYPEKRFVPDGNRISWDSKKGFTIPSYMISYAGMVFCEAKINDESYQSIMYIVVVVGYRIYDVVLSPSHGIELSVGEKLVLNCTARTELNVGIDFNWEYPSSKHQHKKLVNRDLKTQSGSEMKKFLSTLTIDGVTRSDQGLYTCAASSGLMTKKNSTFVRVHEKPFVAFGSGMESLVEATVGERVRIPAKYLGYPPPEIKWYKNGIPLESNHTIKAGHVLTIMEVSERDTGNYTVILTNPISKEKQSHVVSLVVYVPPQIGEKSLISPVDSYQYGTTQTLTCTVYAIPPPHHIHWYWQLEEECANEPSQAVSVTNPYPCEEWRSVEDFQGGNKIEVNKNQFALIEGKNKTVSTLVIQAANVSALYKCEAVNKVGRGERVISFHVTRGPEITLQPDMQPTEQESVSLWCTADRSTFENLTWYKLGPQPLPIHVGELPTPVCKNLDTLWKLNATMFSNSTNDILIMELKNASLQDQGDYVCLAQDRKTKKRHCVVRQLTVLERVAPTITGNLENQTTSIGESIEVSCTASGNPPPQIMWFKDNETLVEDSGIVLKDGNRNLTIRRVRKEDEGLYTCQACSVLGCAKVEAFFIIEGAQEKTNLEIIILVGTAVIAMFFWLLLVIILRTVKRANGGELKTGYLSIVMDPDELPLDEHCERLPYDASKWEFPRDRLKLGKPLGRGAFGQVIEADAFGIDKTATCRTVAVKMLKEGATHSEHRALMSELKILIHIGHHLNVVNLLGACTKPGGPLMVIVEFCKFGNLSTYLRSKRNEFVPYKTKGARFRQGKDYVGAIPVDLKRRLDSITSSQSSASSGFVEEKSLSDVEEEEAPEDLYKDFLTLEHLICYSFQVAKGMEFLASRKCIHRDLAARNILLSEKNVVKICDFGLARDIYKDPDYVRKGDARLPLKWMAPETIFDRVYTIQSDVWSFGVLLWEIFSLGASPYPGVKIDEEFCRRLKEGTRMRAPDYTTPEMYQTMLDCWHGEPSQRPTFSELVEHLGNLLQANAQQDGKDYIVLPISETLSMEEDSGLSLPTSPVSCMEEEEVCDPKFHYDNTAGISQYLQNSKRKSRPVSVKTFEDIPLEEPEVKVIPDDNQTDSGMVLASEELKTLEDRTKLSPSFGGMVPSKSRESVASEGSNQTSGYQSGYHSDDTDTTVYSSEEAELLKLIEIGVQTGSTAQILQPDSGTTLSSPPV
Text: Vascular endothelial growth factor receptor 2 (VEGFR2) is a primary receptor for VEGF-induced endothelial cell signaling. After ligand binding, VEGFR2 is autophosphorylated and activated. The main function of signaling from VEGFR2 is to induce vascularization during development and after tissue injury, and to bypass blocked blood vessels. Pathologically, VEGF and VEGFR2 are involved in tumor angiogenesis and vascular leakage. They are considered to be main participants in many different cancers and ocular diseases that accompany pathological neovascularization. This assay measured the ability of the compounds to inhibit VEGF-induced VEGFR2 autophosphorylation (pVEGFR2) in HUVEC cells by using ELISA.
Culture cells in a cell culture flask to reach a fusion degree of 60%-80% before cell inoculation. Dilute the cell suspension to […] with a pre-warmed complete medium. Add 80 μL of the cell suspension to all wells of a 96-well cell plate (Corning-3599); and incubate the plate overnight at 37° C. in the presence of 5% CO2. Dissolve the compound powder to 10 mM with DMSO and store it in a nitrogen cabinet. Compound dilution plate: Add a reference compound Ponatinib or a compound to be tested to a 96 V-well plate (Axygen-WIpp 2280) at concentrations achieved as follows: performing 3-fold gradient dilution starting from 5 mM (5 μL of 10 mM compound solution plus 5 μL of DMSO) for a total of 8 concentration points. […] Transfer 20 μL of the diluted compound from the intermediate plate to a cell plate. Then, incubate the cell plate for 1 h at 37° C. in the presence of 5% CO2. After the compound was treated for 1 h, add 25 μL of 250 ng/ml human VEGF at a final concentration of 50 ng/ml to a 96-well plate; and incubate the plate for 5 min at 37° C. in the presence of 5% CO2, centrifuge the plate for 10 min at 3,000 rpm, remove the medium and wash the cells once with 300 μL of pre-chilled DPBS per well. Then, centrifuge the plate for 10 min at 4,000 rpm, remove DPBS, and add 110 μL of pre-chilled 1× cell lysis buffer per well to the 96-well plate. Shake the plate for 40 min at 4° C. Then, freeze the plate in a refrigerator at −80° C. On the next day, remove the plate from the refrigerator at −80° C., thaw the plate, centrifuge the plate for 10 min at 3500 rpm, and add 100 μL of the supernatant per well to an ELISA plate. Seal the plate and incubate it for 2 h at 37° C. Wash the wells 4 times with 1× wash buffer. Add 100 μL of recombinant detection antibody per well. Seal the plate, incubate the plate for 1 h at 37° C., and repeat the step of plate washing. Add 100 μL of secondary antibody per well. Seal the plate, incubate the plate for 30 min at 37° C., and repeat the step of plate washing. Add 100 μL of TMB (protected from light) per well. Seal the plate, incubate the plate for 30 min at 37° C., and add 100 μL of the stop solution per well. Gently shake for 30 sec, measure the absorbance with a SpectraMax® 340 PC 384 Absorbance Microplate Reader within 30 min, and read an optical density value at 450 nm. Conduct data analysis using XL Fit software:
Conduct curve fitting using the 4 Parameter Logistic Model or Sigmoidal Dose-Response Model:
X indicating the log value of compound concentration, Y indicating the inhibition ratio (% inhibition), Top indicating the readout of the negative control wells, and bottom indicating the readout of the positive control well.

[6] = target: FLT1 (VEGFR1) (Homo sapiens (Human), UniProt P17948); assay: Kinase inhibition, Mobility Shift Assay (VEGFR1); assay type: biochemical
Chain of FLT1 (VEGFR1) (P17948 27-1338): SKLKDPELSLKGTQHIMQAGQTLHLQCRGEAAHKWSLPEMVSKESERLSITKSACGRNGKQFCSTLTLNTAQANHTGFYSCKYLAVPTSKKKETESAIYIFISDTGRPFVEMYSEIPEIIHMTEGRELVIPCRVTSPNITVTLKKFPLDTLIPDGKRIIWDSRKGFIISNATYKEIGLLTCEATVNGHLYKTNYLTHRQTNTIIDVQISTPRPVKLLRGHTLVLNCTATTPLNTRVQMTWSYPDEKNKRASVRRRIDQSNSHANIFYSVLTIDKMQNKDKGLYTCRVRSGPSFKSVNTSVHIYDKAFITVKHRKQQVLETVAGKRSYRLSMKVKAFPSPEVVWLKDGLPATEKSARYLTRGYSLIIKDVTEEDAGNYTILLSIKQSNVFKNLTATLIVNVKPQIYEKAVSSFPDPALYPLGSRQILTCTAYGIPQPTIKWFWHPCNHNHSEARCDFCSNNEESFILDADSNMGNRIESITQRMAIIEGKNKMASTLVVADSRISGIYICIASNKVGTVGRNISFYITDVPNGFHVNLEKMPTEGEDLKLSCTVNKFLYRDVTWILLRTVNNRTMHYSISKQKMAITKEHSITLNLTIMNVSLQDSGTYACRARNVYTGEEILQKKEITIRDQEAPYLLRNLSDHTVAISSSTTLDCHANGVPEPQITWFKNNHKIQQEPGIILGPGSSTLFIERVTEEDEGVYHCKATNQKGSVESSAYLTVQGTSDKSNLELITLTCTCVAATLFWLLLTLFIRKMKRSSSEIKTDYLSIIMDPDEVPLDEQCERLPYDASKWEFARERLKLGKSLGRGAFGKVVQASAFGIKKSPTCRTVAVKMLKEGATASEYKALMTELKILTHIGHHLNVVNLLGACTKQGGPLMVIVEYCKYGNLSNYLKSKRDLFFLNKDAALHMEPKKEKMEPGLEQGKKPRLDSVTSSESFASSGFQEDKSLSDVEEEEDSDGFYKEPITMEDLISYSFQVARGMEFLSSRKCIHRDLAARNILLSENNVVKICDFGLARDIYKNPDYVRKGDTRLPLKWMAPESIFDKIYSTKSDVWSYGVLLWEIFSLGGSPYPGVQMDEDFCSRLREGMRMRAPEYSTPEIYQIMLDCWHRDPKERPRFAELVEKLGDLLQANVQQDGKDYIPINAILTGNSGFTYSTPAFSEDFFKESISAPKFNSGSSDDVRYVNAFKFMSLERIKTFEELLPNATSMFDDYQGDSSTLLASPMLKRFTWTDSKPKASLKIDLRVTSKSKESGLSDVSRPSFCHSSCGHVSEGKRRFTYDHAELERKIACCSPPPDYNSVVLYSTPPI
Method in brief: as §1

[7] = target: KDR (VEGFR2) (Homo sapiens (Human), UniProt P35968); assay: Kinase inhibition, Mobility Shift Assay (VEGFR2); assay type: biochemical
Chain of KDR (VEGFR2) (P35968 790-1356): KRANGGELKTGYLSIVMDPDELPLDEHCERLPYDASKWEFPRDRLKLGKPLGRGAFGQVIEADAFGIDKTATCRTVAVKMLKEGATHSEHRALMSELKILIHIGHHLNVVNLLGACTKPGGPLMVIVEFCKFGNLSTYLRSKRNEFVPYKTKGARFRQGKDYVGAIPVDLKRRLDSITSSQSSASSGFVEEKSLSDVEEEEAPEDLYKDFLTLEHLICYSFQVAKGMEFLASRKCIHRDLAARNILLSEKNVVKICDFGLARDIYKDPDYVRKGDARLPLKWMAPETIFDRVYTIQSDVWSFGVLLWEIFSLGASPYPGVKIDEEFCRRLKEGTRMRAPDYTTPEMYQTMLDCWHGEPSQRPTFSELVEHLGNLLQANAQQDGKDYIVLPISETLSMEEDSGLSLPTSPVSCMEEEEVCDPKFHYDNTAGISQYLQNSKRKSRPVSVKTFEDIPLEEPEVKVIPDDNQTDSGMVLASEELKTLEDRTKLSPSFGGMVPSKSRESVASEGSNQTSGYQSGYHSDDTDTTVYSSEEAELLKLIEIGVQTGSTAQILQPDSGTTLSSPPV
Method in brief: as §1

[8] = target: FLT4 (VEGFR3) (Homo sapiens (Human), UniProt P35916); assay: Kinase inhibition, Mobility Shift Assay (VEGFR3); assay type: biochemical
Chain of FLT4 (VEGFR3) (P35916 25-1363): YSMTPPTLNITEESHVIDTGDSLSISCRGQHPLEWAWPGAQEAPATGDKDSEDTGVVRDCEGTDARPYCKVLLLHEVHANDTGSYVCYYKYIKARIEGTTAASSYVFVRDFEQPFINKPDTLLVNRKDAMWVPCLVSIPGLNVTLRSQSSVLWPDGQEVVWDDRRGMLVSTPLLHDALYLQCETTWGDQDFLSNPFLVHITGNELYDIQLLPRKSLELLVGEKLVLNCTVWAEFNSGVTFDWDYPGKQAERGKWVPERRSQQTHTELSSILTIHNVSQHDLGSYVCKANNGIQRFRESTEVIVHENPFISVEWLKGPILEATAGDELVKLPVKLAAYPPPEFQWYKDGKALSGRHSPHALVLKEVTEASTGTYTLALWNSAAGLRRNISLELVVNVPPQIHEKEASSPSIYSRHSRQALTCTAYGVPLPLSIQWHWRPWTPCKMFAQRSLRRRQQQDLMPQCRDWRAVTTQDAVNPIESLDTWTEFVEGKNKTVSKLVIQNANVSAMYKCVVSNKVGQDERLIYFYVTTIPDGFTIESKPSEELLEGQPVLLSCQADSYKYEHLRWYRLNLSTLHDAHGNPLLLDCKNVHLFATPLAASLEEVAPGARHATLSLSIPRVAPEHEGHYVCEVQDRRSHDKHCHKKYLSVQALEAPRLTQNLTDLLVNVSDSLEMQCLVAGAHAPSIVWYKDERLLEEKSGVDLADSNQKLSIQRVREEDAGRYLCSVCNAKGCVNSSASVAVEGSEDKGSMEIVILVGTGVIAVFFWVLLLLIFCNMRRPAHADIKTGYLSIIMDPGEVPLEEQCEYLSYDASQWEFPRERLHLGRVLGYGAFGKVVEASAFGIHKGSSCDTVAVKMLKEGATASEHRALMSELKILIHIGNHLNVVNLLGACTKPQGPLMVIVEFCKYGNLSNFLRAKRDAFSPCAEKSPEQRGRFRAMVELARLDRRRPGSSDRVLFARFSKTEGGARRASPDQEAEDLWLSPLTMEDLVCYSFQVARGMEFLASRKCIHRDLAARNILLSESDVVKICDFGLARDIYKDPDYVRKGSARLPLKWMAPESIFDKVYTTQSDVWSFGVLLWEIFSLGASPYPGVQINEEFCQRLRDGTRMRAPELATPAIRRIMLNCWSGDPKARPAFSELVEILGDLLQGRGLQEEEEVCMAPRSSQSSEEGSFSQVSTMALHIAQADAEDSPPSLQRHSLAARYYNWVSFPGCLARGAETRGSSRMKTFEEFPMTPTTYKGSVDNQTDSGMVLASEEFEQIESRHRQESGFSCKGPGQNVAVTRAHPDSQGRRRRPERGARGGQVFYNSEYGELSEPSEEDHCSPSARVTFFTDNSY
Method in brief: as §1

[9] = Thermodynamic solubility assay; conditions: aqueous buffer, pH 2, aqueous buffer, thermodynamic from solid
Method: (§2) After sonication for 10 min, fix them on a shaker and shaking for 8 h at room temperature. After shaking, sonicate for 10 min and centrifuge for 15 min at 13,000 rpm. Pipette 0.1 mL of supernatant into a new tube, shake and rinse it with 5 mL, and discard the liquid. Transfer 0.5 mL of the supernatant again to a new tube, centrifuge it for 15 min at 13,000 rpm, then collect the supernatant (if necessary, dilute with water) and analyze it by LC-MS.
(§3) The sample concentrations at 3-5 points are subjected to fitting and reticle for quantification.

[10] = pH 2
Method: as §2, §3

| Structure (SMILES) | drug concentration in retina [2] | drug concentration in retina ([2]; listed as axitinib) | fraction unbound at 2 h, 2 μM [3] | IC50 [4] | IC50 [5] | IC50 [6] | IC50 [7] | IC50 [8] | solubility at 8 h [9] | solubility [1] | solubility [10] |
| --- | --- | --- | --- | --- | --- | --- | --- | --- | --- | --- | --- |
| CNC(=O)c1ccccc1Sc1ccc2c(/C=C/c3ccccn3)n[nH]c2c1 [Axitinib] | below the lower limit of quantitation | below BLOQ | – | – | – | – | – | – | – | < 2 micrograms/milliliter | – |
| CNC(=O)c1ccccc1Sc1ccc2c(/C=C/c3ccccn3)ncn2c1 [Compound I-26, N-methyl-2-({1-[(E)-2-(pyridin-2-yl)vinyl]imidazo[1,5-a]pyridin-6-yl}thio)benzamide] | – | – | – | > 60000 nM | – | > 100 nM | > 100 nM | > 100 nM | – | – | 142.0 µg/mL (≈ 367 µM) |
| CN(C)Cc1ccc(/C=C/c2n[nH]c3cc(Sc4ccccc4C(=O)NC4CC4)ccc23)nc1 [Compound I-40, N-cyclopropyl-2-({3-[(E)-2-{5-[(dimethylamino)methyl]pyridin-2-yl}vinyl]-1H-indazol-6-yl}thio)benzamide] | – | – | 0.01 to 0.05 | 6000 to 60000 nM | ≤ 1 nM | ≤ 1 nM | ≤ 1 nM | 1 to 10 nM | – | – | – |
| CCNC(=O)c1cc(F)ccc1Sc1ccc2c(/C=C/c3ccc(CN4CCCC4)cn3)n[nH]c2c1 [Compound I-97, N-ethyl-5-fluoro-2-({3-[(E)-2-{5-[(pyrrolidin-1-yl)methyl]pyridin-2-yl}vinyl]-1H-indazol-6-yl}thio)benzamide] | – | – | 0.01 to 0.05 | 6000 to 60000 nM | ≤ 1 nM | 1 to 10 nM | 1 to 10 nM | 1 to 10 nM | – | – | – |
| CNC(=O)c1cc(F)ccc1Sc1ccc2c(/C=C/c3cnn(CCCN4CCCC4)c3)n[nH]c2c1 [Compound I-106] | – | – | > 0.05 | 6000 to 60000 nM | – | – | 1 to 10 nM | – | 1580 µg/mL (≈ 3130 µM) | – | – |

More lines, main results first:

| drug concentration in retina [2] | drug concentration in retina ([2]; listed as axitinib) | fraction unbound at 2 h, 2 μM [3] | IC50 [4] | IC50 [5] | IC50 [6] | IC50 [7] | IC50 [8] | solubility at 8 h [9] | Structure (SMILES) | solubility [1] | solubility [10] |
| --- | --- | --- | --- | --- | --- | --- | --- | --- | --- | --- | --- |
| – | – | 0.01 to 0.05 | 6000 to 60000 nM | 1 to 5 nM | ≤ 1 nM | 1 to 10 nM | 1 to 10 nM | – | CNC(=O)c1ccccc1Sc1ccc2c(/C=C/c3ccc(OCCN4CCCC4)cn3)n[nH]c2c1 [Compound I-6, N-methyl-2-({3-[(E)-2-{5-[2-(pyrrolidin-1-yl)ethoxy]pyridin-2-yl}vinyl]-1H-indazol-6-yl}thio)benzamide] | – | – |
| – | – | 0.01 to 0.05 | 6000 to 60000 nM | ≤ 1 nM | 1 to 10 nM | 1 to 10 nM | 1 to 10 nM | – | CNC(=O)c1ccccc1Sc1ccc2c(/C=C/c3cnn(CCN4CCCC4)c3)n[nH]c2c1 [Compound I-9, N-methyl-2-({3-[(E)-2-{1-[2-(pyrrolidin-1-yl)ethyl]-1H-pyrazole-4-yl}vinyl]-1H-indazol-6-yl}thio)benzamide] | – | – |
| – | – | 0.01 to 0.05 | 6000 to 60000 nM | – | 1 to 10 nM | 1 to 10 nM | 1 to 10 nM | 46.8 µg/mL (≈ 96.4 µM) | CNC(=O)c1ccccc1Sc1ccc2c(/C=C/c3ccc(OCC4CCCN4)cn3)n[nH]c2c1 (stereo not drawn) [Compound I-14, N-methyl-2-({3-[(E)-2-{5-[(pyrrolidin-2-yl)methoxy]pyridin-2-yl}vinyl]-1H-indazol-6-yl}thio)benzamide] | – | – |
| – | – | 0.01 to 0.05 | 6000 to 60000 nM | 1 to 5 nM | 10 to 100 nM | 10 to 100 nM | 10 to 100 nM | – | CNC(=O)c1ccccc1Sc1ccc2c(/C=C/c3cc(OCCN4CCCC4)ccn3)n[nH]c2c1 [Compound I-20, N-methyl-2-({3-[(E)-2-{4-[2-(pyrrolidin-1-yl)ethoxy]pyridin-2-yl}vinyl]-1H-indazol-6-yl}thio)benzamide] | – | – |
| – | – | > 0.05 | 6000 to 60000 nM | ≤ 1 nM | 1 to 10 nM | 1 to 10 nM | 1 to 10 nM | – | CNC(=O)c1cc(F)ccc1Sc1ccc2c(/C=C/c3ccc(OCCN4CCCC4)cn3)n[nH]c2c1 [Compound I-34, 5-fluoro-N-methyl-2-({3-[(E)-2-{5-[2-(pyrrolidin-1-yl)ethoxy]pyridin-2-yl}vinyl]-1H-indazol-6-yl}thio)benzamide] | – | – |
